From patent publication US8575135B2 (Gilead Sciences, Inc., priority 2011, dated 2013) come the findings set out here.

The test system of data set [1] is stable HCV 1a RLuc replicon cells (genotype 1a H77 replicon). Description: microbe, parasite or virus in culture. The format is cell-based. Conditions: Hepatitis C virus.
Data set [2] deals with stable HCV 2a JFH-1 Rluc replicon cells (L31 present in NS5A). The data set is described as follows: microbe, parasite or virus in culture. Conditions: Hepatitis C virus. It counts as cell-based.
Data set [3] has as its system NS5A chimeric genotype 1b Con1 replicon with genotype 3a S52 strain NS5A gene. The data set is described as follows: microbe, parasite or virus in culture. The format is cell-based, HCV. The conditions noted are these: Hepatitis C virus. Summed up: (§1)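 Con1 1b replicons carrying 3a S52 or 4a ED43 NS5A with Pi-RLuc reporter were transiently transfected into Huh-Lunet cells; 2b MD2b-1 NS5A (M31) in JFH-1 2a backbone with RLuc-Neo, transient or stable.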

Data set [4] concerns NS5A chimeric genotype 2a JFH-1 replicon with genotype 2a J6 strain NS5A gene (M31 present). The data set is described as follows: microbe, parasite or virus in culture. The conditions noted are these: Hepatitis C virus. The format is cell-based, HCV.
In data set [5] the test system is NS5A chimeric genotype 2a JFH-1 replicon with genotype 2b MD2b-1 strain NS5A gene (M31 present). The data set is described as follows: microbe, parasite or virus in culture. The format is cell-based, HCV. The conditions noted are these: Hepatitis C virus. Summed up:
as §1

The test system of data set [6] is NS5A chimeric genotype 1b Con1 replicon with genotype 4a ED43 strain NS5A gene. The data set is described as follows: microbe, parasite or virus in culture. It counts as cell-based, HCV. Conditions: Hepatitis C virus.
In data set [7] the test system is 1a Pi-Rluc replicon with Q30R in genotype 1a NS5A. Description: microbe, parasite or virus in culture. The format is cell-based, HCV. The conditions noted are these: Hepatitis C virus. Summed up: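 Q30R introduced by site-directed mutagenesis into genotype 1a Pi-RLuc replicon; RNA transiently transfected into Huh-7-derived cured-51 cells.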
Data set [8] is described as follows: IV and PO single dose pharmacokinetic studies in SD rats. It counts as in vivo. Conditions: male, Sprague-Dawley, rat, plasma, IV infusion 1 mg/kg vs oral gavage 2 mg/kg, read-out: Rat % F. As to the method:
IV and PO Single Dose Pharmacokinetic Studies in SD Rats: The pharmacokinetics of selected compounds was characterized in male Sprague-Dawley (SD) rats (250-300g). […] The intravenous (IV) dosing vehicle was 5% ethanol, 35% polyethylene glycol 400 (PEG 400) and 60% water pH 2.0. […] Serial blood samples (approximately 0.3 mL each) were collected from jugular vein or other suitable vein at specified time points. […] The blood samples were collected into Vacutainer™ tubes containing EDTA-K3 as the anti-coagulant and were centrifuged at approximately 4° C. to obtain plasma. The plasma samples were stored at −20° C. until analysis by LC/MS/MS. A bioanalytical method utilizing high performance liquid chromatography coupled to tandem mass spectrometry (LC/MS/MS) was developed for analysis of the selected compound in rat plasma. Detection was performed using selected reaction monitoring (SRM); […] Standard curve and quality control samples were prepared in male rat plasma and processed in the same way as the test samples to generate quantitative data. Pharmacokinetic parameters were generated using non-compartmental pharmacokinetic analysis (Phoenix WinNonlin, version 6.3). Values below the lower limit of quantification (LLOQ) were assigned a value of zero if predose and treated as missing thereafter. Area under the curve (AUC) was calculated using the linear trapezoidal rule. The oral bioavailability (% F) was determined by comparison of the area under the curve (AUC) of the compound and/or a metabolite generated in plasma following oral administration to that generated following intravenous administration.

Read-outs that look alike come from different tables or passages of the source.

`COC(=O)N[C@H](C(=O)N1[C@@H](C)CC[C@H]1c1ncc(-c2ccc3c(c2)COc2cc4c(ccc5nc([C@@H]6CC[C@H](C)N6C(=O)[C@@H](NC(=O)OC)[C@@H](C)OC)[nH]c54)cc2-3)[nH]1)[C@@H](C)OC` [Example NI, Methyl [(2S,3R)-3-methoxy-1-{(2S,5S)-2-[9-(2-{(2S,5S)-1-[N-(methoxycarbonyl)-O-methyl-L-threonyl]-5-methylpyrrolidin-2-yl}-1H-imidazol-5-yl)-1,11-dihydroisochromeno[4′,3′:6,7]naphtho[1,2-d]imidazol-2-yl]-5-methylpyrrolidin-1-yl}-1-oxobutan-2-yl]carbamate]: the EC50 was less than 1 nM in data set [1] (read-out: 1a); 0.015 nM in data set [1] (read-out: 1a (nM)); less than 1 nM in data set [2] (read-out: 2a JFH); 0.007 nM in data set [2] (read-out: 2a JFH (nM)); less than 1 nM in data set [3] (read-out: 3a); 0.022 nM in data set [3] (read-out: 3a (nM)). In addition, the EC50 in data set [4] (read-out: 2a J6) is less than 1 nM; in data set [4] (read-out: 2a J6 (s) (nM)), 0.169 nM; in data set [4] (read-out: 2a Jb (t) (nM)) it was 0.026 nM; in data set [5] (read-out: 2b), less than 1 nM; in data set [5] (read-out: 2b (s) (nM)), 0.054 nM; in data set [5] (read-out: 2b (t) (nM)), 0.019 nM. Moreover, the EC50 was less than 1 nM in data set [6] (read-out: 4a), 0.02 nM in data set [6] (read-out: 4a (t) (nM)), less than 1 nM in data set [7] (read-out: 1a Q30R) and 0.059 nM in data set [7] (read-out: 1a Q30R (nM)). The bioavailability in data set [8] is 24.1%.
Take `COC[C@H]1C[C@@H](c2nc3ccc4cc5c(cc4c3[nH]2)OCc2cc(-c3cnc([C@@H]4C[C@H](C)CN4C(=O)[C@@H](NC(=O)OC)C(C)C)[nH]3)ccc2-5)N(C(=O)[C@H](NC(=O)OC)c2ccccc2)C1` [Example MN, methyl {(2S)-1-[(2S,4S)-2-(5-{2-[(2S,4S)-1-{(2R)-2-[(methoxycarbonyl)amino]-2-phenylacetyl}-4-(methoxymethyl)pyrrolidin-2-yl]-1,11-dihydroisochromeno[4′,3′:6,7]naphtho[1,2-d]imidazol-9-yl}-1H-imidazol-2-yl)-4-methylpyrrolidin-1-yl]-3-methyl-1-oxobutan-2-yl}carbamate]: the EC50 in data set [1] (read-out: 1a) is less than 1 nM; in data set [1] (read-out: 1a (nM)), 0.014 nM; in data set [2] (read-out: 2a JFH), less than 1 nM; in data set [2] (read-out: 2a JFH (nM)) it was 0.008 nM; in data set [3] (read-out: 3a) it was less than 1 nM; in data set [3] (read-out: 3a (nM)), 0.034 nM. For the same compound, the EC50 in data set [4] (read-out: 2a J6) was less than 1 nM; in data set [4] (read-out: 2a J6 (s) (nM)), 0.071 nM; in data set [4] (read-out: 2a Jb (t) (nM)), 0.017 nM; in data set [5] (read-out: 2b) it was less than 1 nM; in data set [5] (read-out: 2b (s) (nM)), 0.04 nM; in data set [5] (read-out: 2b (t) (nM)), 0.013 nM. In addition, the EC50 in data set [6] (read-out: 4a) is less than 1 nM; in data set [6] (read-out: 4a (s) (nM)), 0.007 nM; in data set [6] (read-out: 4a (t) (nM)), 0.024 nM; in data set [7] (read-out: 1a Q30R) it was less than 1 nM; in data set [7] (read-out: 1a Q30R (nM)) it was 0.018 nM. For the same compound, the bioavailability in data set [8] was determined as 1.5%.
On to `COC[C@H]1C[C@@H](c2nc3ccc4cc5c(cc4c3[nH]2)OCc2cc(-c3cnc([C@@H]4C[C@H](C)CN4C(=O)[C@H](NC(=O)OC)c4ccccc4)[nH]3)ccc2-5)N(C(=O)[C@@H](NC(=O)OC)C(C)C)C1` [Example PF, methyl {1-[2-{9-[2-(1-{[(methoxycarbonyl)amino](phenyl)acetyl}-4-methylpyrrolidin-2-yl)-1H-imidazol-5-yl]-1,11-dihydroisochromeno[4′,3′:6,7]naphtho[1,2-d]imidazol-2-yl}-4-(methoxymethyl)pyrrolidin-1-yl]-3-methyl-1-oxobutan-2-yl}carbamate], for which the EC50 in data set [1] (read-out: 1a) is less than 1 nM; in data set [1] (read-out: 1a (nM)) it was 0.032 nM; in data set [2] (read-out: 2a JFH) it was less than 1 nM; in data set [2] (read-out: 2a JFH (nM)), 0.014 nM; in data set [3] (read-out: 3a), less than 1 nM; in data set [3] (read-out: 3a (nM)), 0.072 nM. In addition, the EC50 is less than 1 nM in data set [4] (read-out: 2a J6); 0.127 nM in data set [4] (read-out: 2a J6 (s) (nM)); 0.025 nM in data set [4] (read-out: 2a Jb (t) (nM)); less than 1 nM in data set [5] (read-out: 2b); 0.117 nM in data set [5] (read-out: 2b (s) (nM)); 0.023 nM in data set [5] (read-out: 2b (t) (nM)). The EC50 was less than 1 nM in data set [6] (read-out: 4a); 0.018 nM in data set [6] (read-out: 4a (s) (nM)); 0.05 nM in data set [6] (read-out: 4a (t) (nM)); less than 1 nM in data set [7] (read-out: 1a Q30R); 0.034 nM in data set [7] (read-out: 1a Q30R (nM)). In addition, the bioavailability in data set [8] amounted to 4.3%.
Turning to `COC[C@H]1C[C@@H](c2nc3ccc4cc5c(cc4c3[nH]2)OCc2cc(-c3cnc([C@@H]4CC[C@H](C)N4C(=O)[C@@H](NC(=O)OC)C(C)C)[nH]3)ccc2-5)N(C(=O)[C@H](NC(=O)OC)c2ccccc2)C1` [Example NP, Methyl {(2S)-1-[(2S,5S)-2-(5-{2-[(2S,4S)-1-{(2R)-2-[(methoxycarbonyl)amino]-2-phenylacetyl}-4-(methoxymethyl)pyrrolidin-2-yl]-1,11 dihydroisochromeno[4′,3′:6,7]naphtho[1,2-d]imidazol-9-yl}-1H-imidazol-2-yl)-5-methylpyrrolidin-1-yl]-3-methyl-1-oxobutan-2-yl}carbamate], the EC50 in data set [1] (read-out: 1a) was less than 1 nM; in data set [1] (read-out: 1a (nM)), 0.014 nM; in data set [2] (read-out: 2a JFH) it was less than 1 nM; in data set [2] (read-out: 2a JFH (nM)), 0.007 nM; in data set [3] (read-out: 3a), less than 1 nM; in data set [3] (read-out: 3a (nM)), 0.02 nM. For the same compound, the EC50 was less than 1 nM in data set [4] (read-out: 2a J6); 0.096 nM in data set [4] (read-out: 2a J6 (s) (nM)); 0.01 nM in data set [4] (read-out: 2a Jb (t) (nM)); less than 1 nM in data set [5] (read-out: 2b); 0.043 nM in data set [5] (read-out: 2b (s) (nM)); 0.011 nM in data set [5] (read-out: 2b (t) (nM)). Also, the EC50 in data set [6] (read-out: 4a) is less than 1 nM; in data set [6] (read-out: 4a (s) (nM)), 0.028 nM; in data set [7] (read-out: 1a Q30R), less than 1 nM; in data set [7] (read-out: 1a Q30R (nM)), 0.032 nM. For the same compound, the bioavailability in data set [8] stood at 26.1%.
As to `COC[C@H]1C[C@@H](c2ncc(-c3ccc4c(c3)COc3cc5c(ccc6nc([C@@H]7CC[C@H](C)N7C(=O)[C@@H](NC(=O)OC)C(C)C)[nH]c65)cc3-4)[nH]2)N(C(=O)[C@H](NC(=O)OC)c2ccccc2)C1` [Example PY, Methyl {(2S)-1-[(2S,5S)-2-(9-{2-[(2S,4S)-1-{(2R)-2-[(methoxycarbonyl)amino]-2-phenylacetyl}-4-(methoxymethyl)pyrrolidin-2-yl]-1H-imidazol-5-yl}-1,11-dihydroisochromeno[4′,3′:6,7]naphtho[1,2-d]imidazol-2-yl)-5-methylpyrrolidin-1-yl]-3-methyl-1-oxobutan-2-yl}carbamate], the EC50 in data set [1] (read-out: 1a) was less than 1 nM; in data set [1] (read-out: 1a (nM)) it was 0.012 nM; in data set [2] (read-out: 2a JFH) it was less than 1 nM; in data set [2] (read-out: 2a JFH (nM)) it was 0.006 nM; in data set [3] (read-out: 3a) it was less than 1 nM; in data set [3] (read-out: 3a (nM)) it was 0.017 nM. For the same compound, the EC50 in data set [4] (read-out: 2a J6) is less than 1 nM; in data set [4] (read-out: 2a J6 (s) (nM)), 0.098 nM; in data set [4] (read-out: 2a Jb (t) (nM)), 0.009 nM; in data set [5] (read-out: 2b), less than 1 nM; in data set [5] (read-out: 2b (s) (nM)) it was 0.03 nM; in data set [5] (read-out: 2b (t) (nM)), 0.007 nM. For the same compound, the EC50 in data set [6] (read-out: 4a) is less than 1 nM; in data set [6] (read-out: 4a (s) (nM)), 0.018 nM; in data set [7] (read-out: 1a Q30R) it was less than 1 nM; in data set [7] (read-out: 1a Q30R (nM)) it was 0.013 nM. Further, the bioavailability in data set [8] amounted to 27.7%.
